Test results published in ChEMBL document CHEMBL1126344, “Substituted penta- and hexapeptides as potent inhibitors of herpes simplex virus type 2 ribonucleotide reductase” (Bioorg Med Chem Lett, 1992).
Starred links: 1 amine or outer side, 2 acyl side, 3 side chain; linkers in the order of their positions; H or OH if unused. Non-standard residues stand in square brackets, D forms with d. Residues, ends and D or L forms follow the SMILES beside them. *: point of attachment. X2 = O=C([C@H](Cc1ccc(O)cc1)N(c1ccc(-c2ccccc2)cc1)[*:1])[*:2]; X3 = O=C([C@H](Cc1ccc(O)cc1)N(Cc1ccsc1)[*:1])[*:2]; Dibenzylacetyl = O=C(C(Cc1ccccc1)Cc1ccccc1)*; NBnTyr = O=C(O)[C@H](Cc1ccc(O)cc1)NCc1ccccc1; NMeY = CN[C@@H](Cc1ccc(O)cc1)C(=O)O; tBuAla = CC(C)(C)C[C@H](N)C(=O)O; NBn2 = c1ccc(CN(Cc2ccccc2)*)cc1; Cha = N[C@@H](CC1CCCCC1)C(=O)O; AllylGly = C=CC[C@H](N)C(=O)O; Morpholide = C1CN(*)CCO1; Pyrrolidide = C1CCN(*)C1; Nva = CCC[C@H](N)C(=O)O; NHBn = c1ccc(CN*)cc1; NMeEt = CCN(C)*

Columns and labels:
[1] = Inhibitory activity of YAGAVVNDL against Herpes Simplex Virus type 2 (HSV-2) ribonucleotide reductase determined as control; set-up: species or system Human alphaherpesvirus 2
[2] = The compound was tested in vitro for inhibitory activity against Herpes Simplex Virus type 2 ribonucleotide reductase; set-up: species or system Human alphaherpesvirus 2
Human alphaherpesvirus 2 = test: Relative potency to that of YAGAVVNDL against Herpes Simplex Virus type 2 ribonucleotide reductase

Row | SMILES | IC50 [1] | IC50 [2] | Relative potency (Human alphaherpesvirus 2)
1 | CC(C)C[C@H](NC(=O)[C@H](CC(=O)O)NC(=O)[C@H](CC(=O)N(Cc1ccccc1)Cc1ccccc1)NC(=O)[C@@H](NC(=O)[C@@H](NC(=O)[C@@H](N)Cc1ccc(O)cc1)C(C)C)C(C)C)C(=O)O (H-YVVD(NBn2)DL-OH) | 25 µM | 2 µM | 13
2 | CC(C)C[C@H](NC(=O)[C@H](CC(=O)O)NC(=O)[C@H](CC(N)=O)NC(=O)[C@@H](NC(=O)[C@@H](NC(=O)[C@H](Cc1ccc(O)cc1)Nc1ccc(-c2ccccc2)cc1)C(C)C)C(C)C)C(=O)O (H-[X2]VVNDL-OH) | 34 µM | 32 µM | 1.1
3 | CC(C)[C@H](NC(=O)[C@@H](NC(=O)[C@@H](N)Cc1ccc(O)cc1)C(C)C)C(=O)N[C@@H](CC(N)=O)C(=O)N[C@@H](CC(=O)O)C(=O)N[C@@H](CC1CCCCC1)C(=O)O (H-YVVND[Cha]-OH) | 16 µM | 55 µM | 0.29
4 | CC(C)[C@H](NC(=O)C(Cc1ccccc1)Cc1ccccc1)C(=O)N[C@H](C(=O)N[C@@H](CC(N)=O)C(=O)N[C@@H](CC(=O)O)C(=O)N[C@@H](CC(C)(C)C)C(=O)O)C(C)C (Dibenzylacetyl-VVND[tBuAla]-OH) | 12 µM | 0.1 µM | 120
5 | CC(C)C[C@H](NC(=O)[C@H](CC(=O)O)NC(=O)[C@H](CC(N)=O)NC(=O)[C@@H](NC(=O)[C@@H](NC(=O)CC(c1ccccc1)c1ccccc1)C(C)C)C(C)C)C(=O)O | 60 µM | 10 µM | 6
6 | CC(C)C[C@H](NC(=O)[C@H](CC(=O)O)NC(=O)[C@H](CC(N)=O)NC(=O)[C@@H](NC(=O)[C@@H](NC(=O)C(C)C)C(C)C)C(C)C)C(=O)O | 5 µM | 30 µM | 0.17
7 | CC(C)C[C@H](NC(=O)[C@H](CC(=O)O)NC(=O)[C@H](CC(=O)N1CCOCC1)NC(=O)[C@@H](NC(=O)[C@@H](NC(=O)[C@@H](N)Cc1ccc(O)cc1)C(C)C)C(C)C)C(=O)O (H-YVVD(Morpholide)DL-OH) | 22 µM | 0.6 µM | 36
8 | CCC[C@H](NC(=O)[C@H](CC(=O)O)NC(=O)[C@H](CC(N)=O)NC(=O)[C@@H](NC(=O)[C@@H](NC(=O)[C@@H](N)Cc1ccc(O)cc1)C(C)C)C(C)C)C(=O)O (H-YVVND[Nva]-OH) | 25 µM | 160 µM | 0.16
9 | CC(C)C[C@H](NC(=O)[C@H](CC(=O)O)NC(=O)[C@H](CC(=O)NCc1ccccc1)NC(=O)[C@@H](NC(=O)[C@@H](NC(=O)[C@@H](N)Cc1ccc(O)cc1)C(C)C)C(C)C)C(=O)O (H-YVVD(NHBn)DL-OH) | 22 µM | 4 µM | 5.5
10 | CC(C)C[C@H](NC(=O)[C@H](CC(=O)O)NC(=O)[C@H](CC(N)=O)NC(=O)[C@@H](NC(=O)[C@@H](NC(=O)C(Cc1ccccc1)Cc1ccc(O)cc1)C(C)C)C(C)C)C(=O)O (stereo in doubt; form 2) [listing 1 of 2 here] | 9 µM | 1.5 µM | 
11 | CC(C)C[C@H](NC(=O)[C@H](CC(=O)O)NC(=O)[C@H](CC(N)=O)NC(=O)[C@@H](NC(=O)[C@@H](NC(=O)N(c1ccccc1)c1ccccc1)C(C)C)C(C)C)C(=O)O | 24 µM | 170 µM | 0.14
12 | CC(C)C[C@H](NC(=O)[C@H](CC(=O)O)NC(=O)[C@H](CC(=O)N1CCCC1)NC(=O)[C@@H](NC(=O)[C@@H](NC(=O)[C@@H](N)CC(=O)O)C(C)C)C(C)C)C(=O)O (H-DVVD(Pyrrolidide)DL-OH) | 32 µM | 1 µM | 32
13 | CC(C)C[C@H](NC(=O)[C@H](CC(=O)O)NC(=O)[C@H](CC(N)=O)NC(=O)[C@@H](NC(=O)[C@@H](NC(=O)C(C)(C)C)C(C)C)C(C)C)C(=O)O | 5 µM | 21 µM | 0.24
14 | CC(C)[C@H](NC(=O)[C@@H](NC(=O)[C@@H](N)Cc1ccc(O)cc1)C(C)C)C(=O)N[C@@H](CC(N)=O)C(=O)N[C@@H](CC(=O)O)C(=O)N[C@@H](CC(C)(C)C)C(=O)O (H-YVVND[tBuAla]-OH) | 43 µM | 13 µM | 3.3
15 | CC(C)C[C@H](NC(=O)[C@H](CC(=O)O)NC(=O)[C@H](CC(N)=O)NC(=O)[C@@H](NC(=O)[C@@H](NC(=O)C(c1ccccc1)c1ccccc1)C(C)C)C(C)C)C(=O)O | 24 µM | 90 µM | 0.27
16 | CC(C)C[C@H](NC(=O)[C@H](CC(=O)O)NC(=O)[C@H](CC(N)=O)NC(=O)[C@@H](NC(=O)[C@@H](NC(=O)N(Cc1ccccc1)Cc1ccccc1)C(C)C)C(C)C)C(=O)O | 24 µM | 11 µM | 2.2
17 | CCN(C)C(=O)C[C@H](NC(=O)[C@@H](NC(=O)[C@@H](NC(=O)[C@@H](N)Cc1ccc(O)cc1)C(C)C)C(C)C)C(=O)N[C@@H](CC(=O)O)C(=O)N[C@@H](CC(C)C)C(=O)O (H-YVVD(NMeEt)DL-OH) | 10 µM | 0.4 µM | 25
18 | COC(=O)C[C@H](NC(=O)[C@@H](NC(=O)[C@@H](NC(=O)[C@@H](N)Cc1ccccc1)C(C)C)C(C)C)C(=O)N[C@@H](CC(=O)O)C(=O)N[C@@H](CC(C)C)C(=O)O (H-FVVD(OMe)DL-OH) | 27 µM | 2 µM | 14

Row | SMILES | IC50 [1] | IC50 [2] | Relative potency (Human alphaherpesvirus 2)
19 | CC(C)C[C@H](NC(=O)[C@H](CC(=O)O)NC(=O)[C@H](CC(N)=O)NC(=O)[C@@H](NC(=O)[C@@H](NC(=O)CCc1ccccc1)C(C)C)C(C)C)C(=O)O | 17 µM | 11 µM | 1.5
20 | C=CC[C@H](NC(=O)[C@H](CC(=O)O)NC(=O)[C@H](CC(N)=O)NC(=O)[C@@H](NC(=O)[C@@H](NC(=O)[C@@H](N)Cc1ccc(O)cc1)C(C)C)C(C)C)C(=O)O (H-YVVND[AllylGly]-OH) | 22 µM | > 430 µM | 
21 | CNC(=O)C[C@H](NC(=O)[C@@H](NC(=O)[C@@H](NC(=O)[C@@H](N)Cc1ccc(O)cc1)C(C)C)C(C)C)C(=O)N[C@@H](CC(=O)O)C(=O)N[C@@H](CC(C)C)C(=O)O (H-YVVD(NHMe)DL-OH) | 21 µM | 2 µM | 11
22 | CC(C)C[C@H](NC(=O)[C@H](CC(=O)O)NC(=O)[C@H](CC(=O)NCc1ccccc1)NC(=O)[C@@H](NC(=O)[C@@H](NC(=O)C(Cc1ccccc1)Cc1ccccc1)C(C)C)C(C)C)C(=O)O (Dibenzylacetyl-VVD(NHBn)DL-OH) | 22 µM | 0.4 µM | 55
23 | CC(C)C[C@H](NC(=O)[C@H](CC(=O)O)NC(=O)[C@H](CC(N)=O)NC(=O)[C@@H](NC(=O)[C@@H](NC(=O)C(Cc1ccccc1)Cc1ccccc1)C(C)C)C(C)C)C(=O)O | 19 µM | 0.5 µM | 38
24 | CN[C@@H](Cc1ccc(O)cc1)C(=O)N[C@H](C(=O)N[C@H](C(=O)N[C@@H](CC(N)=O)C(=O)N[C@@H](CC(=O)O)C(=O)N[C@@H](CC(C)C)C(=O)O)C(C)C)C(C)C (H-[NMeY]VVNDL-OH) | 15 µM |  | 
25 | CC(C)C[C@H](NC(=O)[C@H](CC(=O)O)NC(=O)[C@H](CC(N)=O)NC(=O)[C@@H](NC(=O)[C@@H](NC(=O)[C@@](C)(N)Cc1ccc(O)cc1)C(C)C)C(C)C)C(=O)O (stereo in doubt; form 2) [listing 1 of 2 here] |  |  | 0.25
26 | CC(C)C[C@H](NC(=O)[C@H](CC(=O)O)NC(=O)[C@H](CC(N)=O)NC(=O)[C@@H](NC(=O)[C@@H](NC(=O)[C@@](C)(N)Cc1ccc(O)cc1)C(C)C)C(C)C)C(=O)O (stereo in doubt; form 1) [listing 1 of 2 here] | 30 µM | 58 µM | 
27 | CC(C)C[C@H](NC(=O)[C@H](CC(=O)O)NC(=O)[C@H](CC(N)=O)NC(=O)[C@@H](NC(=O)[C@@H](NC(=O)C(Cc1ccc(O)cc1)Cc1ccc(O)cc1)C(C)C)C(C)C)C(=O)O | 35 µM | 6.5 µM | 5.4
28 | CC(C)[C@H](NC(=O)[C@H](Cc1ccc(O)cc1)NCc1ccccc1)C(=O)N[C@H](C(=O)N[C@@H](CC(N)=O)C(=O)N[C@@H](CC(=O)O)C(=O)N[C@@H](CC(C)(C)C)C(=O)O)C(C)C (H-[NBnTyr]VVND[tBuAla]-OH) | 35 µM | 1.5 µM | 23
29 | CC(C)C[C@H](NC(=O)[C@H](CC(=O)O)NC(=O)[C@H](CC(N)=O)NC(=O)[C@@H](NC(=O)[C@@H](NC(=O)[C@H](Cc1ccc(O)cc1)NCc1ccsc1)C(C)C)C(C)C)C(=O)O (H-[X3]VVNDL-OH) | 80 µM | 20 µM | 4
30 | CC(C)C[C@H](NC(=O)[C@H](CC(=O)O)NC(=O)[C@H](CC(N)=O)NC(=O)[C@@H](NC(=O)[C@@H](NC(=O)[C@@](C)(N)Cc1ccc(O)cc1)C(C)C)C(C)C)C(=O)O (stereo in doubt; form 2) [listing 2 of 2 here] |  | 120 µM | 
31 | CC(C)C[C@H](NC(=O)[C@H](CC(=O)O)NC(=O)[C@H](CC(N)=O)NC(=O)[C@@H](NC(=O)[C@@H](NC(=O)CCc1ccc(O)cc1)C(C)C)C(C)C)C(=O)O | 20 µM | 21 µM | 1
32 | CC(C)[C@H](NC(=O)[C@H](Cc1ccc(O)cc1)NCc1ccccc1)C(=O)N[C@H](C(=O)N[C@@H](CC(=O)N(C)C)C(=O)N[C@@H](CC(=O)O)C(=O)N[C@@H](CC(C)(C)C)C(=O)O)C(C)C (H-[NBnTyr]VVD(NMe2)D[tBuAla]-OH) | 18 µM | 0.3 µM | 60
33 | CC(C)C[C@H](NC(=O)[C@H](CC(=O)O)NC(=O)[C@H](CC(N)=O)NC(=O)[C@@H](NC(=O)[C@@H](NC(=O)C(Cc1ccccc1)Cc1ccc(O)cc1)C(C)C)C(C)C)C(=O)O (stereo in doubt; form 2) [listing 2 of 2 here] |  |  | 6
34 | CC(C)C[C@H](NC(=O)[C@H](CC(=O)O)NC(=O)[C@H](CC(N)=O)NC(=O)[C@@H](NC(=O)[C@@H](NC(=O)C(Cc1ccccc1)Cc1ccc(O)cc1)C(C)C)C(C)C)C(=O)O (stereo in doubt; form 1) |  |  | 21
35 | CC(C)C[C@H](NC(=O)[C@H](CC(=O)O)NC(=O)[C@H](CC(N)=O)NC(=O)[C@@H](NC(=O)[C@@H](NC(=O)[C@@](C)(N)Cc1ccc(O)cc1)C(C)C)C(C)C)C(=O)O (stereo in doubt; form 1) [listing 2 of 2 here] |  |  | 0.52
